According to article PMC6255377, “New 1-Aryl-3-Substituted Propanol Derivatives as Antimalarial Agents” (Molecules, 2009):
Where two headings read alike, the source gives them in different places.

Key:
P. berghei ANKA strain = type: in vivo; conditions: for GIP of P. bergei (growth inhibition percentage): 10 mg/kg/day, positive control; for appearance / toxicity in treated mice: in vivo
Description: The in vivo antimalarial activity of the compounds was measured by the classical 4-day suppressive test. Briefly, on day 0, groups of five NMRI male mice, weighing 20 ± 2 g each, were inoculated with 2 × 10^7 red blood cells RBCs infected by erythrocytic stages of rodent malaria parasite P. berghei ANKA strain. Two hours later, each group of mice was treated intraperitoneally with a dose of 50 mg/kg of the selected compound, previously prepared in DMSO. Treatment was continued from day 1 to day 3, always at similar times. On day 4, Giemsa-stained thin blood smears from the tail of the mice were prepared and microscopically examined with 1,000× magnification. The mean of the parasitemia of each group was calculated in a total of 1,000 RBCs, and the growth inhibition percentage of parasite was estimated in relation to the control group, which received only the solvent of the products. % inhibition = [(Par control – Par comp)/(Par control)] × 100

[1] = system: P. falciparum 3D7 strain, chloroquine sensitive; assay: In vitro antimalarial activity screening (SYBR Green I micromethod); type: cell-based; conditions: Plasmodium falciparum, read-out: P. falciparum 3D7 IC50
Description: The SYBR^©GreenI-based micromethod was followed for testing the antimalarial activity of the compounds. Erythrocytic stages of P. falciparum 3D7 strain, chloroquine sensitive, were maintained in RPMI 1640 culture medium supplemented with 0.5% Albumax II at 37 °C in an atmosphere with 5% CO2. […] Next, stock solutions of each compound were prepared in DMSO and diluted in RPMI medium in order to obtain concentrations from 10 to 0.01 µg/mL. […] All compounds and controls were placed in triplicate. The plate was incubated under the same conditions. After 48 h, the plate was removed from the incubator and frozen for at least 1 h at -70 °C and then thawed. Finally, 100 µL of SYBR^©GreenI in lysis buffer (0.2 µL/mL) was added per well and shaken for 5 minutes or until no precipitated erythrocytes were observed. The plate was left to stand in the dark for 1 h at room temperature. Fluorescence intensity (FI) for each well was measured. The background of the nonparasitized erythrocytes was subtracted from each well tested.

[2] = system: ferriprotoporphyrin IX biomineralization; design: method as in PMID 12128052; conditions: read-out: IC50 in the FBIT test; cited from earlier work
Murine J774 macrophages = assay: Nonspecific cytotoxicity test (MTT); type: cell-based; conditions: 10 µg/mL, 24 h exposure
Description: Murine J774 macrophages were maintained in RPMI 1640 medium supplemented with 10% FBS at 37 °C in a 5% CO2 atmosphere. First, in a flat bottom 96-well microplate, 100 µL of macrophage suspension in RPMI medium, containing 5 × 10^4 cells, were distributed per well. The cells were allowed to attach for 24 h at 37 °C. Next, the medium was replaced by different concentrations of the compounds in 200 µL of medium, or DMSO at the same concentration as growth control, and the cells were exposed to the compounds solutions for another 24 h. Each concentration was assayed three times. Afterwards, the medium was eliminated and 100 µL/well of 3-(4,5-dimethythiazol-2-yl)-2,5-diphenyltetrazolium bromide (MTT) solution, 0.4 mg/mL in PBS, was added and the plates were returned to incubator for 1 h. The suspension was removed and the toxic effect of the compounds was assessed by the reduction of MTT to formazan crystals (as a cell viability indicator); said crystals were solubilized by adding 100 µL of DMSO. Finally, the optical density (OD) was measured at 595 nm and the toxicity percentage was calculated as follows:% toxicity = [(O.D.control - O.D.comp)/(O.D.control)] × 100

[3] = 3D7, Table 1, 48 h incubation, mean of two experiments in triplicate

| Compound | appearance / toxicity in treated mice (P. berghei ANKA strain) | IC50 [1, 3] [nM] | further results |
| --- | --- | --- | --- |
| CCN(CC)CCCC(C)Nc1ccnc2cc(Cl)ccc12 (centres unmarked) [Chloroq., Chloroquine, reference compound] |  |  | GIP of P. bergei (growth inhibition percentage) (P. berghei ANKA strain; four-day treatment, NMRI male mice): 100% at 10 mg/kg; GIP of P. bergei (growth inhibition percentage) (P. berghei ANKA strain; four-day treatment, NMRI male mice, listed as chloroquine): GIP = Growth inhibition percentage of the rodent malaria parasite after a four-day treatment. 10 mg/kg/day of chloroquine, positive control, inhibited 100% the growth parasite. ^a Toxic = death of more than half of the animals in the tested group.; IC50 ([1]; 3D7, 48 h): 80 nM |
| OC(CCN1CCN(c2cccc3ccccc23)CC1)c1csc2ccc(F)cc12 (centres unmarked) [Compound 12] | the appearance of the mice was good | 160 |  |
| C=C[C@H]1C[N@@]2CC[C@H]1C[C@H]2[C@H](O)c1ccnc2ccc(OC)cc12 [quinine] |  |  | IC50 [2]: 324000 nM |
| Cc1ccc2cccc(N3CCN(CCC(O)c4csc5ccc(F)cc45)CC3)c2n1 (centres unmarked) [Compound 23] | looked unhealthy and showed clear evidence of weight loss | 380 |  |
| O=[N+]([O-])c1ccc(N2CCC(NCCC(O)c3csc4ccccc34)CC2)c(C(F)(F)F)c1 (centres unmarked) [Compound 31, 1-(Benzo[b]thiophen-3-yl)-3-[1-(4-nitro-2-trifluoromethylphenyl)piperidin-4-ylamino]propan-1-ol] |  | 190 | cytotoxicity on murine macrophages J774 (Murine J774 macrophages): showed toxicity; GIP of P. bergei at 50 mg/kg/day (growth inhibition percentage) (P. berghei ANKA strain; 50 mg/kg/day intraperitoneally, four-day treatment, NMRI male mice): Toxic; appearance / toxicity in treated mice (P. berghei ANKA strain; male, NMRI, mouse, 4 days): cytotoxicity of compound 31 was confirmed in the in vivo test |
| COc1ccccc1N1CCN(CCC(O)c2csc3ccc(F)cc23)CC1 (centres unmarked) [Compound 15] | looked unhealthy and showed clear evidence of weight loss | 330 |  |
